In ChEMBL document CHEMBL1136301, “1,2,5,6-tetra-O-benzyl-D-mannitol derivatives as novel HIV protease inhibitors” (Bioorg Med Chem Lett, 2003):

The compounds below were run against Human immunodeficiency virus type 1 protease (Human immunodeficiency virus 1, UniProt Q72874) (assay: Inhibitory activity against HIV-1 protease).

| Structure (SMILES) | IC50 [µM] |
| --- | --- |
| O[C@H]([C@H](O)[C@H](COCc1ccccc1)OCc1ccccc1)[C@@H](COCc1ccccc1)OCc1ccccc1 | > 50 |
| O[C@H]([C@H](O)[C@@H](COCc1ccccc1)OCc1ccccc1)[C@@H](COCc1ccccc1)OCc1ccccc1 | > 50 |
| O[C@@H]([C@H](O)[C@@H](COCc1ccccc1)OCc1ccccc1)[C@@H](COCc1ccccc1)OCc1ccccc1 | 2.4 |
| OC(C(COCc1ccccc1)OCc1c(F)cccc1F)C(O)C(COCc1ccccc1)OCc1c(F)cccc1F (stereo not drawn) | 6.4 |
| OC(C(COCc1ccccc1)OCc1ccccc1F)C(O)C(COCc1ccccc1)OCc1ccccc1F (stereo not drawn) | 3.7 |
| OC(C(COCc1ccccc1)OCc1ccc(F)cc1F)C(O)C(COCc1ccccc1)OCc1ccc(F)cc1F (stereo not drawn) | 2.6 |
| OC(C(COCc1ccccc1)OCc1cccc(F)c1)C(O)C(COCc1ccccc1)OCc1cccc(F)c1 (stereo not drawn) | 1.8 |
| Cc1ccc(COC(COCc2ccccc2)C(O)C(O)C(COCc2ccccc2)OCc2ccc(C)cc2)cc1 (stereo not drawn) | 3.7 |
| OC(C(COCc1ccccc1)OCc1ccc(C(F)(F)F)cc1)C(O)C(COCc1ccccc1)OCc1ccc(C(F)(F)F)cc1 (stereo not drawn) | 10 |
| O[C@@H](C[C@@H](COCc1ccccc1)OCc1ccccc1)[C@@H](COCc1ccccc1)OCc1ccccc1 | > 50 |
| OC(C(COCc1c(F)cccc1F)OCc1ccc(F)cc1)C(O)C(COCc1c(F)cccc1F)OCc1ccc(F)cc1 (stereo not drawn) | 0.33 |
| N#Cc1ccc(COC(COCc2ccccc2)C(O)C(O)C(COCc2ccccc2)OCc2ccc(C#N)cc2)cc1 (stereo not drawn) | 5.4 |
| O[C@H]([C@@H](O)[C@H](COCc1ccccc1)OCc1ccccc1)[C@H](COCc1ccccc1)OCc1ccccc1 | > 50 |
| OC(C(COCc1ccc(C(F)(F)F)cc1)OCc1ccc(C(F)(F)F)cc1)C(O)C(COCc1ccc(C(F)(F)F)cc1)OCc1ccc(C(F)(F)F)cc1 (stereo not drawn) | 6 |
| OC(C(COCc1ccccc1)OCc1ccc(Br)cc1)C(O)C(COCc1ccccc1)OCc1ccc(Br)cc1 (stereo not drawn) | 2.1 |
| O=C(O)c1ccc(COCC(OCc2ccccc2)C(O)C(O)C(COCc2ccc(C(=O)O)cc2)OCc2ccccc2)cc1 (stereo not drawn) | 5 |
| COC(=O)c1ccc(COC(COCc2ccccc2)C(O)C(O)C(COCc2ccccc2)OCc2ccc(C(=O)OC)cc2)cc1 (stereo not drawn) | 8.4 |
| OC(C(COCc1ccccc1F)OCc1ccc(F)cc1)C(O)C(COCc1ccccc1F)OCc1ccc(F)cc1 (stereo not drawn) | 0.2 |
| OC(C(COCc1ccccc1)OCc1ccc(Cl)cc1)C(O)C(COCc1ccccc1)OCc1ccc(Cl)cc1 (stereo not drawn) | 2 |
| OC(C(COCc1ccccc1)OCc1ccc(F)cc1)C(O)C(COCc1ccccc1)OCc1ccc(F)cc1 (stereo not drawn) | 0.7 |
| N#Cc1ccc(COCC(OCc2ccc(C#N)cc2)C(O)C(O)C(COCc2ccc(C#N)cc2)OCc2ccc(C#N)cc2)cc1 (stereo not drawn) | 3.1 |
| Cc1ccc(COCC(OCc2ccccc2)C(O)C(O)C(COCc2ccc(C)cc2)OCc2ccccc2)cc1 (stereo not drawn) | 3 |

| Structure (SMILES) | IC50 [µM] |
| --- | --- |
| OC(C(COCc1ccccc1F)OCc1ccccc1)C(O)C(COCc1ccccc1F)OCc1ccccc1 (stereo not drawn) | 0.6 |
| OCc1ccc(COC(COCc2ccccc2)C(O)C(O)C(COCc2ccccc2)OCc2ccc(CO)cc2)cc1 (stereo not drawn) | 10 |
| N#Cc1ccc(COCC(OCc2ccccc2)C(O)C(O)C(COCc2ccc(C#N)cc2)OCc2ccccc2)cc1 (stereo not drawn) | 4.3 |
| O=C(O)c1ccc(COC(COCc2ccccc2)C(O)C(O)C(COCc2ccccc2)OCc2ccc(C(=O)O)cc2)cc1 (stereo not drawn) | 26 |
| OC(C(COCc1cccc(F)c1)OCc1ccccc1)C(O)C(COCc1cccc(F)c1)OCc1ccccc1 (stereo not drawn) | 1.5 |
| NCc1ccc(COC(COCc2ccccc2)C(O)C(O)C(COCc2ccccc2)OCc2ccc(CN)cc2)cc1 (stereo not drawn) | 27 |
| OC(C(COCc1ccc(Cl)cc1)OCc1ccccc1)C(O)C(COCc1ccc(Cl)cc1)OCc1ccccc1 (stereo not drawn) | 5.2 |
| Cc1ccc(COCC(OCc2ccc(C)cc2)C(O)C(O)C(COCc2ccc(C)cc2)OCc2ccc(C)cc2)cc1 (stereo not drawn) | 7 |
| OC(C(COCc1ccc(F)cc1)OCc1ccc(F)cc1)C(O)C(COCc1ccc(F)cc1)OCc1ccc(F)cc1 (stereo not drawn) | 1.6 |
| O[C@@H]([C@H](O)[C@@H](Cc1ccccc1)OCc1ccccc1)[C@@H](Cc1ccccc1)OCc1ccccc1 | > 50 |
| OC(C(COCc1ccc(Br)cc1)OCc1ccccc1)C(O)C(COCc1ccc(Br)cc1)OCc1ccccc1 (stereo not drawn) | 6 |
| NC(=O)c1ccc(COC(COCc2ccccc2)C(O)C(O)C(COCc2ccccc2)OCc2ccc(C(N)=O)cc2)cc1 (stereo not drawn) | 20 |
| OC(C(COCc1ccc(F)cc1)OCc1ccccc1)C(O)C(COCc1ccc(F)cc1)OCc1ccccc1 (stereo not drawn) | 2.5 |
| COC(=O)c1ccc(COCC(OCc2ccccc2)C(O)C(O)C(COCc2ccc(C(=O)OC)cc2)OCc2ccccc2)cc1 (stereo not drawn) | 2 |
| OC(C(COCc1c(F)cccc1F)OCc1ccccc1)C(O)C(COCc1c(F)cccc1F)OCc1ccccc1 (stereo not drawn) | 0.33 |
| OC(C(COCc1ccc(F)cc1F)OCc1ccccc1)C(O)C(COCc1ccc(F)cc1F)OCc1ccccc1 (stereo not drawn) | 4.2 |
| O[C@@H]([C@H](OCc1ccccc1)[C@H](COCc1ccccc1)OCc1ccccc1)[C@@H](COCc1ccccc1)OCc1ccccc1 | > 50 |
| OC(C(COCc1ccc(C(F)(F)F)cc1)OCc1ccccc1)C(O)C(COCc1ccc(C(F)(F)F)cc1)OCc1ccccc1 (stereo not drawn) | 5 |
| O[C@@H]([C@H](O)[C@@H](COc1ccccc1)OCc1ccccc1)[C@@H](COc1ccccc1)OCc1ccccc1 | > 50 |
| Cc1ccccc1COC(COCc1ccccc1F)C(O)C(O)C(COCc1ccccc1F)OCc1ccccc1C (stereo not drawn) | 0.8 |
| OCc1ccc(COCC(OCc2ccccc2)C(O)C(O)C(COCc2ccc(CO)cc2)OCc2ccccc2)cc1 (stereo not drawn) | 1.2 |
